Experiments:
Assay type in all cases: biochemical, Clostridium thermocellum
[1] = test system: endoglucanase 44A; experiment: Enzymatic hydrolysis on the PTFE-like ACG surface with endoglucanase 44A, MS-TOF assay; details: substrate immobilized on the PTFE-like ACG surface
Description: (§1) For each carbohydrate, a specific enzyme was added: (a) is the control run without enzymes, (b) is exoglucanase L3, and (c) is endoglucanase 44A. […]
(§2) For comparison and as illustrated according to implementations shown in FIG. 23, substrate 8, 9, and 10 were immobilized on the PTFE-like ACG surface and carried out the cellulase hydrolysis on the surface directly, after the same washing procedures, these slides were subjected to MS-TOF assay. […] The endoglucanase 44A can't accept compound 8 or 9 as a substrate. […] From the above results, the cellotetraose substrate 10 was the best carbohydrate to create array on the PTFE-like ACG surface for the experiments conducted. By using this array, the activity and specificity of unknown cellulase may be examined.
(§3) Cellulase was prepared (5 U/mL in 25 mM pH 5.05 NaOAc buffer solution). Substrate was also dissolved in NaOAc buffer solution (25 mM, pH 5.05) to give 0.5 mM substrate solution. Add 50 μL cellulase solution to 50 μL substrate solution onto the glass slide which was loaded in FAST® Frame multi-slide plate to have a 2.5 U/mL cellulase solution with 0.25 mM substrate. The well of the plate was sealed and the whole assembly was incubated in 37° C. for 18 hours. Put the slide in dry box to remove the water, and then use high vacuum to remove trace water. 100 uL water was used to rinse each well of the FAST® Frame multi-slide plate to solve and remove the salt of the buffer solution. Remove any residual water on the plate by high vacuum and then analyzed the slide by MALDI-TOF Ultra-Flex II.
(§4) The genomic DNA of Sulfolobus solfataricus (ATCC 35092) and Clostridium thermocellum (ATCC 27405) were obtained from the ATCC biological resource center. The Sso7d (NCBI accession number: AAK42090) gene fragment was amplified directly from the Sulfolobus solfataricus genome by polymerase chain reaction (PCR) with forward 5′ […] 3′ (SEQ ID NO: 1) and reverse 5′ […] 3′ (SEQ ID NO: 2) primers. […]

[2] = test system: exoglucanase L3; experiment: Enzymatic hydrolysis in solution with purified exoglucanase L3, MS-TOF assay; details: reaction in solution
Description: (§5) To verify, the exoglucanases (L3) and endoglucanase (44A) were prepared according methods well known in the literature with minor modifications. First, enzymatic hydrolysis reactions were conducted in solution with the purified enzymes using substrates 8, 9 and 10. At the completion of the reaction, the solution mixtures were transferred to the PTFE-like ACG slide, and prepared by using the same washing procedures before being subjected to MS-TOF assay.
as §1
(§6) Cellulase was prepared (5 U/mL in 25 mM pH 5.05 NaOAc buffer solution). Substrate was also dissolved in NaOAc buffer solution (25 mM, pH 5.05) to give 0.5 mM substrate solution. Add 100 uL cellulase solution to 100 uL substrate solution in eppendorf to have a 2.5 U/mL cellulase solution with 0.25 mM substrate. This solution was incubated in 37° C. for 18 hours. Add 100 μL incubated solution onto the slide loaded in FAST® Frame. Put the slide in dry box to remove the water, and then use high vacuum to remove trace water. 100 μL water was used to rinse each well of the FAST® Frame multi-slide plate to solve and remove the salt of the buffer solution. Remove any residual water on the plate by high vacuum and then analyzed the slide by MALDI-TOF Ultra-Flex II.
as §4, with “primers. The PCR product encoding Sso7d was digested with NdeI and BamHI and subsequently cloned into expression vector pET-28a (Novagen) to generate pET-28-Sso7d.” for “primers.”

[3] = test system: exoglucanase L3; experiment: Enzymatic hydrolysis on the PTFE-like ACG surface with exoglucanase L3, MS-TOF assay; details: substrate immobilized on the PTFE-like ACG surface, 24 hours of incubation
Description: as §1, §2
as §3, with “The well of the plate was sealed and the whole assembly was incubated in 37° C. for 18 hours.” left out
as §4

[4] = test system: endoglucanase 44A; experiment: Enzymatic hydrolysis in solution with purified endoglucanase 44A, MS-TOF assay; details: reaction in solution
Description: as §5, §1, §6
as §4, with “primers. The PCR product encoding Sso7d was digested with NdeI and BamHI and subsequently cloned into expression vector pET-28a (Novagen) to generate pET-28-Sso7d.” for “primers.”

O=C(NCCCCCO[C@@H]1O[C@H](CO)[C@@H](O[C@@H]2O[C@H](CO)[C@@H](O[C@@H]3O[C@H](CO)[C@@H](O[C@@H]4O[C@H](CO)[C@@H](O)[C@H](O)[C@H]4O)[C@H](O)[C@H]3O)[C@H](O)[C@H]2O)[C@H](O)[C@H]1O)OCCCC(F)(F)C(F)(F)C(F)(F)C(F)(F)C(F)(F)C(F)(F)C(F)(F)C(F)(F)C(F)(F)F [Compound 10, [(4,4,5,5,6,6,7,7,8,8,9,9,10,10,11,11,12,12,12-nonadecafluorododecoxycarbonyl-amino)pentyl] ß-D-glucopyranosyl-(1→4)-ß-D-glucopyranosyl-(1→4)- -ß-D-glucopyranosyl-(1→4)-13-D-glucopyranoside]
Cleavage of the substrate by endoglucanase 44A (in words) [1]: cleaved cellotetraose quickly | Cleavage of the substrate by exoglucanase L3 (in words) [2]: quickly | Cleavage of the substrate by exoglucanase L3 (in words) [3]: cleaved the cellobiose quickly | Cleavage of the substrate by endoglucanase 44A (in words) [4]: cleaves the trisaccharide or tetrasaccharide unit

Source: US10274488B2, “Glycan arrays on PTFE-like aluminum coated glass slides and related methods” (Academia Sinica, priority 2008, dated 2019)
